Columns and labels:
[1] = tested on: 17-β-hydroxysteroid dehydrogenase; assay: purified 17-β-hydroxysteroid dehydrogenase assay, absorbance at 340nm (NADH); type: biochemical; settings: propylene glycol 10% in volume
Procedure: Another experimentation in this field was carried out using purified 17-β-hydroxysteroid dehydrogenase, 17-β-estradiol as a substrate and NAD^+ as a cofactor in the control tubes, in sample tubes 10% in volume of propyleneglycol was added. The continuous monitoring of the increase in the absorbance at 340nm generated by the appearance of NADH was the method used. […] Therefore the inhibition of the conversion is no mediated by a denaturalization process of the enzyme, therefore we postulated that the process of inhibition was governed by competition for NAD^+.

[2] = tested on: enzymatic degradation from estradiol to estrone in human skin; assay: inhibition of the estradiol metabolism in human skin; settings: for % Estradiol Metabolized (E1 *100/E1 + E2): 10% PPG; for Inhibition %: 10% PPG versus control; for Estradiol / Estrone: saturated estradiol in saline + 10% PPG, human skin without stratum corneum, n=3; for % estrone formed (percent of estradiol conversion to estrone): n = 4
[3] = in vitro permeation through mouse skin in diffusion chamber; type: in vitro ADME, Swiss mice; settings: n = 4
From the text: […]. The techniques of this permeation studies is described afterwards.
Furthermore, "in vitro" permeation experiments with abdominal mouse skin and human skin were made using the diffusion chamber that is schematically shown in longitudinal section in FIG. 1.
The diffusion chamber illustrated in FIG. 1 comprises a body having front and rear tubular sections 1 and 2 having respective annular end flanges 3 and 4 by which the sections 1 and 2 are joined together. A sample of skin 5, with attached estradiol delivery device D to be tested facing the rear tubular section 2, is clamped between the flanges 3 and 4 by means of a pinch clamp 6.
The tubular section 1 has an internal chamber 7 with an opening 8 furnished with a glass stopper 9. The tubular section 1 has also a jacket 10 through which warm water can be circulated to maintain the contents of the chamber 7 at the desired temperature. The chamber 7 contains a magnetic bar stirrer 11 which is rotatable by means of a magnetic field applied externally means (not shown) to enable the contents of the chamber 7 to be stirred.
The tubular section 2 has a chamber 12 with an opening 13 furnished with a glass stopper 14.
In the assay, the skin of Swiss mice, shaved 72 hours before the experiments, was employed. Also used was human skin obtained from human skin samples (remnants of plastic surgery) which have been eliminated the adipose tissue by scissors, and then was cut to 500 microns by a dermatome.
[…]. Each experiment was started by loading chamber 7 with 5.5 ml of a receptor solution of sodium lauryl sulfate (0.5%), starting the stirrer 11 and taking samples at pre determined periods of time and the subsequent determination of permeated estradiol (by HPLC).

[4] = saturation of estradiol in the coating layer; settings: bad appearance, diminished adhesive properties

CC(O)CO (centres unmarked) [Propylene glycol, propylene glycol]
increase in the absorbance at 340nm (NADH) ([1]; 0 min): 0 | effect on purified enzyme activity versus control ([1]; 17-β-estradiol substrate, NAD+ cofactor): No differences | increase in the absorbance at 340nm (NADH) ([1]; 1 min): 15 | increase in the absorbance at 340nm (NADH) ([1]; 2 min): 30 | increase in the absorbance at 340nm (NADH) ([1]; 3 min): 47 | increase in the absorbance at 340nm (NADH) ([1]; 4 min): 60 | increase in the absorbance at 340nm (NADH) ([1]; 5 min): 72 | increase in the absorbance at 340nm (NADH) ([1]; 6 min): 95 | increase in the absorbance at 340nm (NADH) ([1]; 7 min): 105 | increase in the absorbance at 340nm (NADH) ([1]; 8 min): 113 | increase in the absorbance at 340nm (NADH) ([1]; 9 min): 120 | increase in the absorbance at 340nm (NADH) ([1]; 10 min): 125 | increase in the absorbance at 340nm (NADH) ([1]; 11 min): 128 | increase in the absorbance at 340nm (NADH) ([1]; 12 min): 130 | % Estradiol Metabolized (E1 *100/E1 + E2) ([2]; Exp. 1): 7.4% | Inhibition % ([2]; Exp. 1): 66.0% | Estradiol ([2]; Exp. 1): 3.51 nmol/mL | Estrone ([2]; Exp. 1): 0.27 nmol/mL | % Estradiol Metabolized (E1 *100/E1 + E2) ([2]; Exp. 2): 6.55% | Inhibition % ([2]; Exp. 2): 57.2% | Estradiol ([2]; Exp. 2): 2.71 nmol/mL | Estrone ([2]; Exp. 2): 0.19 nmol/mL | propyleneglycol concentration at which enzymatic conversion of estradiol to estrone is minimized ([2]; FIG. 4C): 10 % wt | % estrone formed (percent of estradiol conversion to estrone) ([2]; PG 0.25%): 37.9% | % estrone formed (percent of estradiol conversion to estrone) ([2]; PG 0.5%): 33.6% | % estrone formed (percent of estradiol conversion to estrone) ([2]; PG 1.5%): 26.8% | % estrone formed (percent of estradiol conversion to estrone) ([2]; PG 3%): 20.6% | % estrone formed (percent of estradiol conversion to estrone) ([2]; PG 5%): 16.1% | % estrone formed (percent of estradiol conversion to estrone) ([2]; PG 10%): 9.2% | inhibition of enzymatic degradation of estradiol to estrone ([2]; tests conducted by the applicant): inhibits the enzymatic mechanism that causes degradation of estradiol to estrone

C[C@]12CC[C@@H]3c4ccc(O)cc4CC[C@H]3[C@@H]1CC[C@@H]2O [Estradiol, estradiol]
Flux through mouse skin at 24h ([3]; estradiol concentration 1 wt % in coating layer): 1.8 ± 0.29 μg/cm^2 *h | Flux through mouse skin at 24h ([3]; estradiol concentration 1.5 wt % in coating layer): 2.2 ± 0.25 μg/cm^2 *h | Flux through mouse skin at 24h ([3]; estradiol concentration 1.75 wt % in coating layer): 2.8 ± 0.33 μg/cm^2 *h | Flux through mouse skin at 24h ([3]; estradiol concentration 1.8 wt % in coating layer): 3.28 ± 0.41 μg/cm^2 *h | Flux through mouse skin at 24h ([3]; estradiol concentration 2 wt % in coating layer): 3.31 ± 0.45 μg/cm^2 *h | Flux through mouse skin at 24h ([3]; estradiol concentration 2.5 wt % in coating layer): 3.39 ± 0.37 μg/cm^2 *h | transformation of estradiol in contact with the enzymes of the skin ([2]; permeation through skin): enzymatically oxidazed to estrone | concentration above which estradiol precipitates in the polymeric matrix [4]: above 2.1 wt %
